Results published in US20240228489A1, “POSITIVE ALLOSTERIC MODULATORS OF THE MUSCARINIC ACETYLCHOLINE RECEPTOR M1” (Vanderbilt University, priority 2021, published 2024).

Legend:
human mAChR M1 [1] = molecular target: T1, human mAChR M1 (Homo sapiens, UniProt P11229); test: mAChR M1 cell-based functional assay (calcium mobilization), PAM mode: increase in the EC20 acetylcholine response
T1 sequence (P11229 1-460): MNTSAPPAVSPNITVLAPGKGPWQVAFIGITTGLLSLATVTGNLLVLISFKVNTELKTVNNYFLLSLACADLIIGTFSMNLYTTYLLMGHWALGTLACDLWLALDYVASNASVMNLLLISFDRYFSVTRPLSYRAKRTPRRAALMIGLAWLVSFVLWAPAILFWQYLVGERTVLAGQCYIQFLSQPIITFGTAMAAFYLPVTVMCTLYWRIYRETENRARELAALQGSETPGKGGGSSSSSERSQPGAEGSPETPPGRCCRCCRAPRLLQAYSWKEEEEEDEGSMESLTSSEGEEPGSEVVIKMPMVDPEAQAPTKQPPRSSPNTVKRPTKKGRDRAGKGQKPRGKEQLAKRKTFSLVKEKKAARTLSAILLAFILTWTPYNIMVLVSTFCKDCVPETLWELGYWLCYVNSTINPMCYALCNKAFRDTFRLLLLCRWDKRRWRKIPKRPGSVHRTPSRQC
Method in brief: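 CHO-K1 cells stably expressing hM1, Fluo-4 loaded, read by FDSS calcium flux at 1 Hz. Compound (11-point 1:3 CRC) added at 4 s, EC20 acetylcholine at 144 s, EC80 at 230 s. PAM activity taken as concentration-dependent increase in EC20 ACh response, fitted by four-parameter logistic for EC50/Emax.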

human mAChR M1 [2] = molecular target: T1, human mAChR M1; test: mAChR M1 cell-based functional assay (calcium mobilization), agonist mode: compound alone, Emax relative to acetylcholine maximum; conditions: for EC50 / Agonist Activity Human M1 EC50: human mAChR M1; for Emax: relative to the maximum for acetylcholine
Method in brief: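 CHO-K1 cells stably expressing hM1 were loaded with Fluo-4 AM, and calcium flux was read as fluorescence ratio. Compound was added alone from an 11-point 1:3 curve, and the agonist response was fitted with a four-parameter logistic. Emax is expressed relative to the acetylcholine maximum.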

SMILES | EC50 (human mAChR M1 [1]) | Emax (human mAChR M1 [1]) | EC50 (human mAChR M1 [2]) | Emax (human mAChR M1 [2]) | Agonist Activity Human M1 EC50 (human mAChR M1 [2])
[2H]C1([2H])c2ncccc2C(=O)N1Cc1c(F)cc(-c2ccc(O[C@H](C)COC)c3nn(C)cc23)cc1F [Compound 148, (R)-6-(2,6-difluoro-4-(7-((1-methoxypropan-2-yl)oxy)-2-methyl-2H-indazol-4-yl)benzyl)-6,7-dihydro-5H-pyrrolo[3,4-b]pyridin-5-one-7,7-d2] | 0.54 µM | 81% | ≥ 10 µM | 31% | –
[2H]C1([2H])c2ncccc2C(=O)N1Cc1c(F)cc(-c2ccc(O[C@@H](C)COC)c3nn(C)cc23)cc1F [Compound 171, (S)-6-(2,6-difluoro-4-(7-((1-methoxypropan-2-yl)oxy)-2-methyl-2H-indazol-4-yl)benzyl)-6,7-dihydro-5H-pyrrolo[3,4-b]pyridin-5-one-7,7-d2] | 0.337 µM | 81% | ≥ 10 µM | 31% | –
[2H]C1([2H])c2ncccc2C(=O)N1Cc1ccc(-c2ccc(OC3CN(C(=O)OC(C)(C)C)C3)c3nn(C)cc23)cc1F [Compound 176, tert-butyl 3-((4-(3-fluoro-4-((5-oxo-5,7-dihydro-6H-pyrrolo[3,4-b]pyridin-6-yl-7,7-d2)methyl)phenyl)-2-methyl-2H-indazol-7-yl)oxy)azetidine-1-carboxylate] | 1.32 µM | 60% | – | 2% | Inactive
[2H]C1([2H])c2ncccc2C(=O)N1Cc1c(F)cc(-c2ccc(OCC3CCCO3)c3nn(C)cc23)cc1F (stereo not drawn) [Compound 134, 6-(2,6-difluoro-4-(2-methyl-7-((tetrahydrofuran-2-yl)methoxy)-2H-indazol-4-yl)benzyl)-6,7-dihydro-5H-pyrrolo[3,4-b]pyridin-5-one-7,7-d2] | 0.701 µM | 75% | ≥ 10 µM | 23% | –
[2H]C([2H])([2H])Oc1cnc2c(c1)C(=O)N(Cc1ccc(-c3ccc(OC)c4nn(C)cc34)cc1F)C2([2H])[2H] [Compound 142, 6-(2-fluoro-4-(7-methoxy-2-methyl-2H-indazol-4-yl)benzyl)-3-(methoxy-d3)-6,7-dihydro-5H-pyrrolo[3,4-b]pyridin-5-one-7,7-d2] | 0.215 µM | 81% | 6.06 µM | 13% | –
[2H]C1([2H])c2ncccc2C(=O)N1Cc1c(F)cc(-c2cnc(OC)c3c2cnn3C)cc1F [Compound 253, 6-(2,6-difluoro-4-(7-methoxy-1-methyl-1H-pyrazolo[3,4-c]pyridin-4-yl)benzyl)-6,7-dihydro-5H-pyrrolo[3,4-b]pyridin-5-one-7,7-d2] | > 10 µM | 27% | – | 2% | Inactive
[2H]C1([2H])c2ncccc2C(=O)N1Cc1c(C)cc(-c2ccc(C)c3nn(C)cc23)cc1F [Compound 197, 6-(4-(2,7-dimethyl-2H-indazol-4-yl)-2-fluoro-6-methylbenzyl)-6,7-dihydro-5H-pyrrolo[3,4-b]pyridin-5-one-7,7-d2] | 0.433 µM | 85% | ≥ 10 µM | 37% | –
[2H]C1([2H])c2ncccc2C(=O)N1Cc1ccc(-c2ccc(OCCOC)c3nn(C)cc23)cc1F [Compound 116, 6-(2-fluoro-4-(7-(2-methoxyethoxy)-2-methyl-2H-indazol-4-yl)benzyl)-6,7-dihydro-5H-pyrrolo[3,4-b]pyridin-5-one-7,7-d2] | 0.287 µM | 72% | 9.43 µM | 21% | –
[2H]C1([2H])c2ncccc2C(=O)N1Cc1c(F)cc(-c2cccc3nn(C4COC4)cc23)cc1F [Compound 49, 6-(2,6-difluoro-4-(2-(oxetan-3-yl)-2H-indazol-4-yl)benzyl)-6,7-dihydro-5H-pyrrolo[3,4-b]pyridin-5-one-7,7-d2] | 0.848 µM | 80% | – | 2% | Inactive
[2H]C1([2H])c2ncccc2C(=O)N1Cc1ccc(-c2ccc3nn(C)cc3c2)cc1 [Compound 12, 6-(4-(2-methyl-2H-indazol-5-yl)benzyl)-6,7-dihydro-5H-pyrrolo[3,4-b]pyridin-5-one-7,7-d2] | 1.23 µM | 62% | – | 2% | Inactive
[2H]C1([2H])c2ncccc2C(=O)N1Cc1ccc(-c2ccc(C)c3nn(C([2H])([2H])[2H])cc23)cc1C [Compound 58, 6-(2-methyl-4-(7-methyl-2-(methyl-d3)-2H-indazol-4-yl)benzyl)-6,7-dihydro-5H-pyrrolo[3,4-b]pyridin-5-one-7,7-d2] | 0.614 µM | 83% | – | 4% | Inactive
[2H]C1([2H])c2ncccc2C(=O)N1Cc1c(F)cc(-c2cc3cn(C)nc3cc2C)cc1F [Compound 6, 6-(4-(2,6-dimethyl-2H-indazol-5-yl)-2,6-difluorobenzyl)-6,7-dihydro-5H-pyrrolo[3,4-b]pyridin-5-one-7,7-d2] | 4.09 µM | 48% | – | 7% | Inactive
[2H]C1([2H])c2ncccc2C(=O)N1Cc1c(C)cc(-c2ccc3nn(C)cc3c2)cc1F [Compound 194, 6-(2-fluoro-6-methyl-4-(2-methyl-2H-indazol-5-yl)benzyl)-6,7-dihydro-5H-pyrrolo[3,4-b]pyridin-5-one-7,7-d2] | 0.437 µM | 83% | 3.55 µM | 18% | –
[2H]C1([2H])c2ncccc2C(=O)N1Cc1c(F)cc(-c2ccc(OC)c3n[nH]cc23)cc1F [Compound 38, 6-(2,6-difluoro-4-(7-methoxy-2H-indazol-4-yl)benzyl)-6,7-dihydro-5H-pyrrolo[3,4-b]pyridin-5-one-7,7-d2] | 0.436 µM | 69% | > 10 µM | 2% | –
[2H]C1([2H])c2ncccc2C(=O)N1Cc1c(Cl)cc(-c2cccc3nn(C)cc23)cc1C1CC1 [Compound 219, 6-(2-chloro-6-cyclopropyl-4-(2-methyl-2H-indazol-4-yl)benzyl)-6,7-dihydro-5H-pyrrolo[3,4-]pyridin-5-one-7,7-d2] | 0.49 µM | 89% | – | 8% | Inactive

Now from value to compound:

EC50 (human mAChR M1 [1]) | Emax (human mAChR M1 [1]) | EC50 (human mAChR M1 [2]) | Emax (human mAChR M1 [2]) | Agonist Activity Human M1 EC50 (human mAChR M1 [2]) | SMILES
0.371 µM | 81% | > 10 µM | 13% | – | [2H]C1([2H])c2ncccc2C(=O)N1Cc1c(F)cc(-c2cccc3nn(CC)cc23)cc1F [Compound 42, 6-(4-(2-ethyl-2H-indazol-4-yl)-2,6-difluorobenzyl)-6,7-dihydro-5H-pyrrolo[3,4-b]pyridin-5-one-7,7-d2]
0.819 µM | 69% | – | 11% | Inactive | [2H]C([2H])([2H])Oc1cc(-c2cc(F)c(CN3C(=O)c4cccnc4C3([2H])[2H])c(F)c2)c2cn(C([2H])([2H])[2H])nc2c1 [Compound 87, 6-(2,6-difluoro-4-(6-(methoxy-d3)-2-(methyl-d3)-2H-indazol-4-yl)benzyl)-6,7-dihydro-5H-pyrrolo[3,4-b]pyridin-5-one-7,7-d2]
1.36 µM | 54% | – | 2% | Inactive | [2H]C1([2H])c2ncccc2C(=O)N1Cc1c(F)cc(-c2cccc3nn(C([2H])([2H])[2H])cc23)cc1C(F)(F)F [Compound 226, 6-(2-fluoro-4-(2-(methyl-d3)-2H-indazol-4-yl)-6-(trifluoromethyl)benzyl)-6,7-dihydro-5H-pyrrolo[3,4-b]pyridin-5-one-7,7-d2]
1.37 µM | 58% | – | 3% | Inactive | [2H]C1([2H])c2ncccc2C(=O)N1Cc1c(F)cc(-c2cccc3nn(C)cc23)cc1C(F)(F)F [Compound 225, 6-(2-fluoro-4-(2-methyl-2H-indazol-4-yl)-6-(trifluoromethyl)benzyl)-6,7-dihydro-5H-pyrrolo[3,4-b]pyridin-5-one-7,7-d2]
0.164 µM | 88% | 5.94 µM | 25% | – | [2H]C1([2H])c2ncccc2C(=O)N1Cc1c(F)cc(-c2ccc(OCC)c3nn(C([2H])([2H])[2H])cc23)cc1F [Compound 97, 6-(4-(7-ethoxy-2-(methyl-d3)-2H-indazol-4-yl)-2,6-difluorobenzyl)-6,7-dihydro-5H-pyrrolo[3,4-b]pyridin-5-one-7,7-d2]
3.78 µM | 77% | – | 1% | Inactive | [2H]C1([2H])c2ncccc2C(=O)N1Cc1c(F)cc(-c2cccc3nn(C([2H])([2H])[2H])cc23)cc1N1CCC1 [Compound 222, 6-(2-(azetidin-1-yl)-6-fluoro-4-(2-(methyl-d3)-2H-indazol-4-yl)benzyl)-6,7-dihydro-5H-pyrrolo[3,4-b]pyridin-5-one-7,7-d2]
